Test results taken from patent US20150250782A1, “Methods and Compositions for Hypotensive Resuscitation” (Pharmazz, Inc., priority 2012, published 2015).

Key:
hemorrhaged rats = conditions: Gill, Pelit et al. 2011; cited from earlier work
α2 adrenergic receptors = test: Centhaquin resuscitation with and without α2 adrenergic antagonists: arterial blood hematocrit, pH, gases, electrolytes, lactate; format: in vivo, rat; conditions: hemorrhaged rats
rats in endotoxic shock = test: Endotoxic shock induced by E. coli LPS in rats; format: in vivo; conditions: 0.05 mg/kg after LPS 30 mg/kg iv; one rat, sacrificed at the end of experiment; vehicle rat died after 270 min
Experimental: FIG. 14 illustrates the efficiency of a low dose of centhaquin citrate in the treatment of septic shock. In the tests summarized in FIG. 14, anaesthetized rats were immobilized on a surgical board and an incision was made above the femoral vein and artery. The vessels were cleaned and isolated. Heart rate and mean arterial pressure were measured by cannulating left femoral artery with pressure transducer SPR-320 (Millar Instruments), connected to a ML221 bridge amplifier (AD Instruments) through AEC-10C connector and the signals were acquired (1000 S^−) using PowerLab 16/30. Left femoral veins were secured for drug administration using PE 50 tubing (Clay Adams, Parsipanny, N.J.). Right femoral artery was cannulated for blood drawings using PE 50 tubing (Clay Adams, Parsipanny, N.J.). After completion of the surgery, animals were maintained in a steady state for 30 minutes before administration of Lipopolysaccharide (LPS). Endotoxic shock was induced by intravenous injection of E. coli LPS O111:B4 (Sigma Chemical, St. Louis, Mo.) dissolved to a concentration of 10 mg in 0.1 ml of normal saline and a dose of 30 mg/kg was administered. Resuscitation (R) was performed either with vehicle (saline) or with centhaquin citrate (0.05 mg/kg). The rat treated with vehicle has lower blood pressure compared to the rat treated with centhaquin. […]

[1] = system: urethane anesthetized rats; test: Cardiovascular effects in urethane anesthetized rats, centhaquin vs centhaquin citrate; format: in vivo, rat; conditions: 0.05, 0.15, 0.45 mg/kg; 60 minute period; mean blood pressure, pulse pressure, heart rate, cardiac output, stroke volume, stroke work
Experimental: In these plots, centhaquin is tested as the free base in amounts of 0.05, 0.15, and 0.45 mg/kg. Similarly, centhaquin citrate dihydrate is tested in amounts of 0.05, 0.15, and 0.45 mg/kg. These amounts of centhaquin citrate are equivalent to 0.030, 0.089, and 0.267 mg/kg of centhaquin as the free base.

## N=C(N)NCCCCN [Agmatine]
Hemorrhaged rats
  resuscitative effect: effective resuscitation agent
  resuscitative effect in presence of yohimbine: completely blocked

## CCC1(c2cnc[nH]2)Cc2ccccc2C1 [atipamezole, reference compound]
α2 adrenergic receptors
  effect of the α2 adrenergic antagonist on the resuscitative effect of centhaquin: completely blocked

## Cc1cccc(N2CCN(CCc3ccc4ccccc4n3)CC2)c1.O=C(O)CC(O)(CC(=O)O)C(=O)O [centhaquin citrate]
Rats in endotoxic shock
  survival: 360 min
[1]
  cardiovascular effects compared to centhaquin free base at same mg/kg dose: substantially outperformed centhaquin free base

## COC(=O)[C@@H]1[C@H]2C[C@H]3c4[nH]c5ccccc5c4CCN3C[C@@H]2CC[C@@H]1O [yohimbine, reference compound]
α2 adrenergic receptors
  effect of the α2 adrenergic antagonist on the resuscitative effect of centhaquin: completely blocked
